The values below come from patent publication US20240398805A1, “QUINAZOLINE DERIVED COMPOUNDS AS EGFR INHIBITORS AND THEIR USES THEREOF” (ACCUTAR BIOTECHNOLOGY INC., priority 2021, published 2024).

For orientation: GI50 means the concentration that inhibits growth by half. Read a high GI50 as less potent growth inhibition.

Holding throughout (type): cell-based
The subject of assay [1] is HCC827-YVMA cells (human ERBB2 exon20 insertion mutant A775_G776ins YVMA). Kind of assay: Cell growth inhibition (CellTiter-Glo, 3 days) in HCC827-YVMA. The following applies: 72 h, 3 days after administration. Summed up: (§1)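 HCC827 cells lentivirally transduced with codon-optimized ASV or YVMA insertion mutants were seeded at 5000 cells/well in RPMI with 10% FBS and incubated overnight. Compound was added at various concentrations from a 10× stock in medium, with 3 days' incubation. Viability read by CellTiter-Glo luminescence.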
(In general: ATP-based viability assays read luminescence as a measure of living cells.)

For another assay, the system named is A431 cells. The assay is described as follows: Cell growth inhibition (CellTiter-Glo, 3 days) in A431. The following applies: Homo sapiens, A-431, 72 h, 3 days after administration. Summed up:
(§2)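 HCC827 cells were plated at 5000 cells/well in RPMI with 10% FBS, and A431 cells at the same density in DMEM with 10% FBS. After overnight attachment, compounds were added at various concentrations. Luminescence was recorded after plates were equilibrated to room temperature and incubated 10 min with reagent.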

A further assay relates to HCC827 cells. Kind of assay: Cell growth inhibition (CellTiter-Glo, 3 days) in HCC827. As to conditions: Homo sapiens, 72 h, 3 days after administration. The procedure, abridged: as §2
Assay [2] relates to HCC827-SVD cells (human EGFR exon 20 insertion mutant D770_N771 insSVD). The assay is described as follows: Cell growth inhibition (CellTiter-Glo, 3 days) in HCC827-SVD. The following applies: 72 h, 3 days after administration. Summed up:
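HCC827 cells carrying lentiviral codon-optimized EGFR D770_N771 insSVD, with endogenous EGFR knocked out by CRISPR (single clone), seeded at 5000 cells/well in RPMI with 10% FBS. Viability read by CellTiter-Glo luminescence.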

The test system of assay [3] is HCC827-ASV cells (human EGFR exon 20 insertion mutant A769_D770insASV). The assay is described as follows: Cell growth inhibition (CellTiter-Glo, 3 days) in HCC827-ASV. The following applies: 72 h, 3 days after administration. Summed up:
as §1

Turning to `C=CC(=O)N1CCC(Nc2cc3c(Nc4ccc(Oc5ccnc(N6CCOC[C@@H]6CO)c5)cc4F)ncnc3cc2OC)CC1` [Example 127, (S)-1-(4-((4-((2-fluoro-4-((2-(3-(hydroxymethyl)morpholino)pyridin-4-yl)oxy)phenyl)amino)-7-methoxyquinazolin-6-yl)amino)piperidin-1-yl)prop-2-en-1-one], the GI50 in assay [1] was 100 to 300 nM; with A431 cells, at least 1000 nM; in the assay with HCC827 cells, 600 to 1000 nM; in assay [2], 100 to 300 nM; in assay [3], 100 to 300 nM.
As for `C=CC(=O)N1CCC(Nc2cc3c(Nc4ccc(Oc5ccnc(N6CCC(C)(O)CC6)c5)cc4F)ncnc3cc2OC)CC1` [Example 128, 1-(4-((4-((2-fluoro-4-((2-(4-hydroxy-4-methylpiperidin-1-yl)pyridin-4-yl)oxy)phenyl)amino)-7-methoxyquinazolin-6-yl)amino)piperidin-1-yl)prop-2-en-1-one], the GI50 in assay [1] is 100 to 300 nM; with A431 cells, at least 1000 nM; in the assay on HCC827 cells it was 300 to 600 nM; in assay [2], 60 to 100 nM; in assay [3], 100 to 300 nM.
For `C=CC(=O)N1CCC(Nc2cc3c(Nc4ccc(Oc5ccnc(N6CCC(C)(OC)CC6)c5)cc4F)ncnc3cc2OC)CC1` [Example 129, 1-(4-((4-((2-fluoro-4-((2-(4-methoxy-4-methylpiperidin-1-yl)pyridin-4-yl)oxy)phenyl)amino)-7-methoxyquinazolin-6-yl)amino)piperidin-1-yl)prop-2-en-1-one], the GI50 is 60 to 100 nM in assay [1]; at least 1000 nM in the assay with A431 cells; 300 to 600 nM in the assay on HCC827 cells; 60 to 100 nM in assay [2]; 30 to 60 nM in assay [3].
As for `C=CC(=O)N1CCC(Nc2cc3c(Nc4ccc(Oc5ccnc(N6CC7CCC(C6)O7)c5)cc4F)ncnc3cc2OC)CC1` [Example 130, 1-(4-((4-((4-((2-(8-oxa-3-azabicyclo[3.2.1]octan-3-yl)pyridin-4-yl)oxy)-2-fluorophenyl)amino)-7-methoxyquinazolin-6-yl)amino)piperidin-1-yl)prop-2-en-1-one], the GI50 in assay [1] lay in the range of 30 to 60 nM; in the assay with A431 cells, 300 to 600 nM; with HCC827 cells it was 100 to 300 nM; in assay [2], 30 to 60 nM; in assay [3] it was 30 to 60 nM.
In the case of `C=CC(=O)N1CCC(Nc2cc3c(Nc4ccc(Oc5ccnc(N6C[C@@H]7C[C@H]6CO7)c5)cc4F)ncnc3cc2OC)CC1` [Example 131, 1-(4-((4-((4-((2-((1S,4S)-2-oxa-5-azabicyclo[2.2.1]heptan-5-yl)pyridin-4-yl)oxy)-2-fluorophenyl)amino)-7-methoxyquinazolin-6-yl)amino)piperidin-1-yl)prop-2-en-1-one], the GI50 was 60 to 100 nM in assay [1]; at least 1000 nM with A431 cells; 600 to 1000 nM in the assay on HCC827 cells; 60 to 100 nM in assay [2]; 30 to 60 nM in assay [3].
For the molecule `C=CC(=O)N1CCC(Nc2cc3c(Nc4ccc(Oc5ccnc(N6CCO[C@@H](C)C6)c5)cc4F)ncnc3cc2OC)CC1` [Example 132, (S)-1-(4-((4-((2-fluoro-4-((2-(2-methylmorpholino)pyridin-4-yl)oxy)phenyl)amino)-7-methoxyquinazolin-6-yl)amino)piperidin-1-yl)prop-2-en-1-one], the GI50 was below 30 nM in assay [1]; 600 to 1000 nM in the assay on A431 cells; 100 to 300 nM in the assay on HCC827 cells; below 30 nM in assay [2]; below 30 nM in assay [3].
`C=CC(=O)N1CCC(Nc2cc3c(Nc4ccc(Oc5ccnc(N6CCO[C@H](C)C6)c5)cc4F)ncnc3cc2OC)CC1` [Example 133, (R)-1-(4-((4-((2-fluoro-4-((2-(2-methylmorpholino)pyridin-4-yl)oxy)phenyl)amino)-7-methoxyquinazolin-6-yl)amino)piperidin-1-yl)prop-2-en-1-one]: the GI50 was below 30 nM in assay [1]; 600 to 1000 nM with A431 cells; 100 to 300 nM in the assay with HCC827 cells; below 30 nM in assay [2]; below 30 nM in assay [3].
Consider `C=CC(=O)N1CCC(Nc2cc3c(Nc4ccc(Oc5ccnc(N6C[C@H]7C[C@@H]6CO7)c5)cc4F)ncnc3cc2OC)CC1` [Example 134, 1-(4-((4-((4-((2-((1R,4R)-2-oxa-5-azabicyclo[2.2.1]heptan-5-yl)pyridin-4-yl)oxy)-2-fluorophenyl)amino)-7-methoxyquinazolin-6-yl)amino)piperidin-1-yl)prop-2-en-1-one], for which the GI50 in assay [1] is 30 to 60 nM; in the assay on A431 cells, 600 to 1000 nM; in the assay on HCC827 cells it was 100 to 300 nM; in assay [2], 30 to 60 nM; in assay [3] it was below 30 nM.
As for `C=CC(=O)N1CCC(Nc2cc3c(Nc4ccc(Oc5ccnc(N6CCOC[C@@H]6C)c5)cc4F)ncnc3cc2OC)CC1` [Example 135, (S)-1-(4-((4-((2-fluoro-4-((2-(3-methylmorpholino)pyridin-4-yl)oxy)phenyl)amino)-7-methoxyquinazolin-6-yl)amino)piperidin-1-yl)prop-2-en-1-one], the GI50 was 30 to 60 nM in assay [1]; at least 1000 nM with A431 cells; 300 to 600 nM in the assay on HCC827 cells; 60 to 100 nM in assay [2]; below 30 nM in assay [3].
Taken in the same sequence, the figures for `C=CC(=O)N1CCC(Nc2cc3c(Nc4ccc(Oc5ccnc(N6C7CCC6COC7)c5)cc4F)ncnc3cc2OC)CC1` [Example 136, 1-(4-((4-((4-((2-(3-oxa-8-azabicyclo[3.2.1]octan-8-yl)pyridin-4-yl)oxy)-2-fluorophenyl)amino)-7-methoxyquinazolin-6-yl)amino)piperidin-1-yl)prop-2-en-1-one] were 30 to 60 nM, 600 to 1000 nM, 300 to 600 nM, 30 to 60 nM and 30 to 60 nM.
Taken in the same sequence, the figures for `C=CC(=O)N1CCC(Nc2cc3c(Nc4ccc(Oc5ccnc(N6CCOC[C@H]6C)c5)cc4F)ncnc3cc2OC)CC1` [Example 137, (R)-1-(4-((4-((2-fluoro-4-((2-(3-methylmorpholino)pyridin-4-yl)oxy)phenyl)amino)-7-methoxyquinazolin-6-yl)amino)piperidin-1-yl)prop-2-en-1-one] were 300 to 600 nM, at least 1000 nM, at least 1000 nM, 100 to 300 nM and 100 to 300 nM.
For `C=CC(=O)N1CCC(Nc2cc3c(Nc4ccc(Oc5ccnc(N6CCOC(C)(C)C6)c5)cc4F)ncnc3cc2OC)CC1` [Example 138, 1-(4-((4-((4-((2-(2,2-dimethylmorpholino)pyridin-4-yl)oxy)-2-fluorophenyl)amino)-7-methoxyquinazolin-6-yl)amino)piperidin-1-yl)prop-2-en-1-one], in that order: below 30 nM, at least 1000 nM, 100 to 300 nM, below 30 nM and below 30 nM.
In the case of `C=CC(=O)N1CCC(Nc2cc3c(Nc4ccc(Oc5ccnc(N6CC(O)C6)c5)cc4F)ncnc3cc2OC)CC1` [Example 139, 1-(4-((4-((2-fluoro-4-((2-(3-hydroxyazetidin-1-yl)pyridin-4-yl)oxy)phenyl)amino)-7-methoxyquinazolin-6-yl)amino)piperidin-1-yl)prop-2-en-1-one], the GI50 in assay [1] was 100 to 300 nM; in the assay on A431 cells it was 300 to 600 nM; with HCC827 cells it was 100 to 300 nM; in assay [2], 100 to 300 nM; in assay [3], 60 to 100 nM.
On to `C=CC(=O)N1CCC(Nc2cc3c(Nc4ccc(Oc5ccnc(N6CC(CO)C6)c5)cc4F)ncnc3cc2OC)CC1` [Example 140, 1-(4-((4-((2-fluoro-4-((2-(3-(hydroxymethyl)azetidin-1-yl)pyridin-4-yl)oxy)phenyl)amino)-7-methoxyquinazolin-6-yl)amino)piperidin-1-yl)prop-2-en-1-one], for which the GI50 lay in the range of 300 to 600 nM in assay [1]; 600 to 1000 nM with A431 cells; 600 to 1000 nM in the assay on HCC827 cells; 100 to 300 nM in assay [2]; 100 to 300 nM in assay [3].
As to `C=CC(=O)N1CCC(Nc2cc3c(Nc4ccc(Oc5ccnc(N6CC(C#N)C6)c5)cc4F)ncnc3cc2OC)CC1` [Example 141, 1-(4-(4-((6-((1-acryloylpiperidin-4-yl)amino)-7-methoxyquinazolin-4-yl)amino)-3-fluorophenoxy)pyridin-2-yl)azetidine-3-carbonitrile], the GI50 in assay [1] was 30 to 60 nM; in the assay with A431 cells, at least 1000 nM; in the assay with HCC827 cells it was 100 to 300 nM; in assay [2], 30 to 60 nM; in assay [3] it was below 30 nM.
With `C=CC(=O)N1CCC(Nc2cc3c(Nc4ccc(Oc5ccnc(N6CC(COC)C6)c5)cc4F)ncnc3cc2OC)CC1` [Example 142, 1-(4-((4-((2-fluoro-4-((2-(3-(methoxymethyl)azetidin-1-yl)pyridin-4-yl)oxy)phenyl)amino)-7-methoxyquinazolin-6-yl)amino)piperidin-1-yl)prop-2-en-1-one], the GI50 was below 30 nM in assay [1]; at least 1000 nM with A431 cells; 100 to 300 nM in the assay on HCC827 cells; below 30 nM in assay [2]; below 30 nM in assay [3].
